Assay results from ChEMBL document CHEMBL4330132, “5-Keto-3-cyano-2,4-diaminothiophenes as selective maternal embryonic leucine zipper kinase inhibitors” (Bioorg Med Chem Lett, 2019).

Columns and labels:
[1] = biological target: Phosphatidylinositol 4,5-bisphosphate 3-kinase catalytic subunit alpha isoform (Homo sapiens) (UniProt P42336); assay: Binding affinity to wild-type human partial length PIK3CA (R108 to N1068 residues) expressed in mammalian expression system assessed as residual binding level at 1 uM by Kinomescan method relative to control
[2] = biological target: Serine/threonine-protein kinase RIO1 (Homo sapiens) (UniProt Q9BRS2); assay: Binding affinity to wild-type human full length RIOK1 (M1 to K568 residues) expressed in bacterial expression system assessed as residual binding level at 1 uM by Kinomescan method relative to control
[3] = biological target: Serine/threonine-protein kinase PAK 4 (Homo sapiens) (UniProt O96013); assay: Binding affinity to wild-type human partial length PAK4 (Q144 to R438 residues) expressed in bacterial expression system assessed as residual binding level at 1 uM by Kinomescan method relative to control
[4] = biological target: Dual specificity mitogen-activated protein kinase kinase 6 (Homo sapiens) (UniProt P52564); assay: Binding affinity to wild-type human partial length MEK6 (K36 to D334 residues) expressed in bacterial expression system assessed as residual binding level at 1 uM by Kinomescan method relative to control
Dual specificity mitogen-activated protein kinase kinase 6 (Homo sapiens), sequence (P52564 whole entry, the tested form may be a part): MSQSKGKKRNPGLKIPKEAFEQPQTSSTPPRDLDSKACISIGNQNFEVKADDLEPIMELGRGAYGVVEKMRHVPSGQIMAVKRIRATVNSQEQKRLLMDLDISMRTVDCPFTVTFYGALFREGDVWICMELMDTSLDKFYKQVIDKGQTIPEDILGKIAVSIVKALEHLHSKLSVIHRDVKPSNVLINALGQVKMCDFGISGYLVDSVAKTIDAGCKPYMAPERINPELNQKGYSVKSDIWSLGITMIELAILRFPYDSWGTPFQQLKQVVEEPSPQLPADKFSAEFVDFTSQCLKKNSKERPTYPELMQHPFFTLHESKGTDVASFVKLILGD

[5] = biological target: Atypical kinase COQ8B, mitochondrial (Homo sapiens) (UniProt Q96D53); assay: Binding affinity to wild-type human full length ADCK4 (M1 to S544 residues) expressed in bacterial expression system assessed as residual binding level at 1 uM by Kinomescan method relative to control
[6] = biological target: Tyrosine-protein kinase ABL2 (Homo sapiens) (UniProt P42684); assay: Binding affinity to wild-type human ABL2 (A248 to G542 residues) expressed in bacterial expression system assessed as residual binding level at 1 uM by Kinomescan method relative to control
Tyrosine-protein kinase ABL2 (Homo sapiens), sequence (P42684 whole entry, the tested form may be a part): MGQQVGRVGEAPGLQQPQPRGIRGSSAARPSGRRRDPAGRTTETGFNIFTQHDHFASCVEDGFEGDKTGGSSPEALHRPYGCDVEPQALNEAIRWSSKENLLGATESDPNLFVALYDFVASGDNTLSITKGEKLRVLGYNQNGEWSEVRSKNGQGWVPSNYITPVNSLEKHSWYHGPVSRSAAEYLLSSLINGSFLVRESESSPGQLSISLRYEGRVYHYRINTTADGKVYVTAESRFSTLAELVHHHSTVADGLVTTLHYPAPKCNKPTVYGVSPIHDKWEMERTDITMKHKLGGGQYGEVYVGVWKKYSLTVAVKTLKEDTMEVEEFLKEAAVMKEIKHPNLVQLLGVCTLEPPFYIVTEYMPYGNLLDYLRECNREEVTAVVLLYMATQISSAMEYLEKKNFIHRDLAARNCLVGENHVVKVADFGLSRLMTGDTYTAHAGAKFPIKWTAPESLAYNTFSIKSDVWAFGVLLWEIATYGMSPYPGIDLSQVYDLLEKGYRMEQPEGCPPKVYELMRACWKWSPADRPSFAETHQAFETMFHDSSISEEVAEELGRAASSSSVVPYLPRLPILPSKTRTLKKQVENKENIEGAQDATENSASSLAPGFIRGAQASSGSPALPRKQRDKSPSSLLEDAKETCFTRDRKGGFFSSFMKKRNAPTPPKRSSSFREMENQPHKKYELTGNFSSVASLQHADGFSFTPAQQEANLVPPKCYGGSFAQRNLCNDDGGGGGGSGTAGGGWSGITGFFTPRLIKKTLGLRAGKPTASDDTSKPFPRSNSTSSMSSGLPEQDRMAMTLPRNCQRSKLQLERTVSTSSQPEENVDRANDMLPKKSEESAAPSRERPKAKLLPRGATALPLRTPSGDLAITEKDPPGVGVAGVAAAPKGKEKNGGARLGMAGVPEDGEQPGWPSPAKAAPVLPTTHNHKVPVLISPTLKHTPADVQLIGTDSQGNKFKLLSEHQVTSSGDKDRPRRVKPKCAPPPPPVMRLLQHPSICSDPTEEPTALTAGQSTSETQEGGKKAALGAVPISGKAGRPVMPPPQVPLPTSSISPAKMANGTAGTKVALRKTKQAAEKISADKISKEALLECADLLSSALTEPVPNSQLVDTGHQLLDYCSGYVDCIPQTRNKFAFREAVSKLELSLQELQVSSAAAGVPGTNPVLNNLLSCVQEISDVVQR

[7] = biological target: Mitogen-activated protein kinase 13 (Homo sapiens) (UniProt O15264); assay: Binding affinity to wild-type human full length p38-delta (M1 to L365 residues) expressed in bacterial expression system assessed as residual binding level at 1 uM by Kinomescan method relative to control
[8] = biological target: Mitogen-activated protein kinase kinase kinase 7 (Homo sapiens) (UniProt O43318); assay: Binding affinity to wild-type human partial length TAK1 (M1 to Q303 residues) expressed in mammalian expression system assessed as residual binding level at 1 uM by Kinomescan method relative to control
[9] = biological target: Casein kinase I isoform epsilon (Homo sapiens) (UniProt P49674); assay: Binding affinity to wild-type human full length CSNK1E (M1 to K416 residues) expressed in bacterial expression system assessed as residual binding level at 1 uM by Kinomescan method relative to control
[10] = system: Epidermal growth factor receptor (Homo sapiens), P00533 [L858R]; assay: Binding affinity to human partial length EGFR L858R mutant (R669 to V1011 residues) expressed in bacterial expression system assessed as residual binding level at 1 uM by Kinomescan method relative to control
[11] = system: Phosphatidylinositol 4,5-bisphosphate 3-kinase catalytic subunit alpha isoform (Homo sapiens), P42336 [Q546K]; assay: Binding affinity to human partial length PIK3CA Q546K mutant (R108 to N1068 residues) expressed in mammalian expression system assessed as residual binding level at 1 uM by Kinomescan method relative to control
[12] = biological target: Tyrosine-protein kinase JAK3 (Homo sapiens) (UniProt P52333); assay: Binding affinity to wild-type human partial length JAK3 JH1 catalytic domain (I781 to S1124 residues) expressed in mammalian expression system assessed as residual binding level at 1 uM by Kinomescan method relative to control
Tyrosine-protein kinase JAK3 (Homo sapiens), sequence (P52333 whole entry, the tested form may be a part): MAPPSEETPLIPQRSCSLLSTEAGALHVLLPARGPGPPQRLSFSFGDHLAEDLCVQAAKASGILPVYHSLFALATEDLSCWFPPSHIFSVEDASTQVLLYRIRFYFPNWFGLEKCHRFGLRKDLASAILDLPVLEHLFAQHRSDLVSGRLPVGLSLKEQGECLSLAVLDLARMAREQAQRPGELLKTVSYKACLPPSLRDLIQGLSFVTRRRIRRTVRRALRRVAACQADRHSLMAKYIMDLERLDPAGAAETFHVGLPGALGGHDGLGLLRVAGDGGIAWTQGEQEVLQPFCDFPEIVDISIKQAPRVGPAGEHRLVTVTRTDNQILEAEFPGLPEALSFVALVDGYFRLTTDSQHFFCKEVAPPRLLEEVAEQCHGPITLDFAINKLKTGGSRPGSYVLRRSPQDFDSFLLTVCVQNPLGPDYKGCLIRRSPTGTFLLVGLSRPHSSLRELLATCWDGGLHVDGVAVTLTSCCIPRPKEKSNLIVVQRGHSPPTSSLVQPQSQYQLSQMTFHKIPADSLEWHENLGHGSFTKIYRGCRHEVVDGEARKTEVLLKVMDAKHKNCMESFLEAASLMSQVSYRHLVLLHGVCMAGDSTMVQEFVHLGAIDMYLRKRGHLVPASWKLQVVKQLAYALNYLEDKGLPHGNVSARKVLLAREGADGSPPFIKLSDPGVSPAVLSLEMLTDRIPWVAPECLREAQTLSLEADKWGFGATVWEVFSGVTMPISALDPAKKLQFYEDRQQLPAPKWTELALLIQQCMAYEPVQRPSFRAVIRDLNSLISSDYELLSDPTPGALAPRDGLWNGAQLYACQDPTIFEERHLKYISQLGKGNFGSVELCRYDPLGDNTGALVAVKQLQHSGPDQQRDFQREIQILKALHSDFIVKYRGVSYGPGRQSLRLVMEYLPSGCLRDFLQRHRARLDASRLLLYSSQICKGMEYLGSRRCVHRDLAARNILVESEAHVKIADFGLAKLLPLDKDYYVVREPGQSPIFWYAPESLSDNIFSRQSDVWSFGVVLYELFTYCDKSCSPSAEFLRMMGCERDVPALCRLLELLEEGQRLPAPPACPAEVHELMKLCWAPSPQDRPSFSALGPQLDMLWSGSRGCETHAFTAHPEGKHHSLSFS

[13] = biological target: Myosin-IIIa (Homo sapiens) (UniProt Q8NEV4); assay: Binding affinity to wild-type human partial length MYO3A (M1 to K338 residues) expressed in bacterial expression system assessed as residual binding level at 1 uM by Kinomescan method relative to control
Myosin-IIIa (Homo sapiens), sequence (Q8NEV4 whole entry, the tested form may be a part): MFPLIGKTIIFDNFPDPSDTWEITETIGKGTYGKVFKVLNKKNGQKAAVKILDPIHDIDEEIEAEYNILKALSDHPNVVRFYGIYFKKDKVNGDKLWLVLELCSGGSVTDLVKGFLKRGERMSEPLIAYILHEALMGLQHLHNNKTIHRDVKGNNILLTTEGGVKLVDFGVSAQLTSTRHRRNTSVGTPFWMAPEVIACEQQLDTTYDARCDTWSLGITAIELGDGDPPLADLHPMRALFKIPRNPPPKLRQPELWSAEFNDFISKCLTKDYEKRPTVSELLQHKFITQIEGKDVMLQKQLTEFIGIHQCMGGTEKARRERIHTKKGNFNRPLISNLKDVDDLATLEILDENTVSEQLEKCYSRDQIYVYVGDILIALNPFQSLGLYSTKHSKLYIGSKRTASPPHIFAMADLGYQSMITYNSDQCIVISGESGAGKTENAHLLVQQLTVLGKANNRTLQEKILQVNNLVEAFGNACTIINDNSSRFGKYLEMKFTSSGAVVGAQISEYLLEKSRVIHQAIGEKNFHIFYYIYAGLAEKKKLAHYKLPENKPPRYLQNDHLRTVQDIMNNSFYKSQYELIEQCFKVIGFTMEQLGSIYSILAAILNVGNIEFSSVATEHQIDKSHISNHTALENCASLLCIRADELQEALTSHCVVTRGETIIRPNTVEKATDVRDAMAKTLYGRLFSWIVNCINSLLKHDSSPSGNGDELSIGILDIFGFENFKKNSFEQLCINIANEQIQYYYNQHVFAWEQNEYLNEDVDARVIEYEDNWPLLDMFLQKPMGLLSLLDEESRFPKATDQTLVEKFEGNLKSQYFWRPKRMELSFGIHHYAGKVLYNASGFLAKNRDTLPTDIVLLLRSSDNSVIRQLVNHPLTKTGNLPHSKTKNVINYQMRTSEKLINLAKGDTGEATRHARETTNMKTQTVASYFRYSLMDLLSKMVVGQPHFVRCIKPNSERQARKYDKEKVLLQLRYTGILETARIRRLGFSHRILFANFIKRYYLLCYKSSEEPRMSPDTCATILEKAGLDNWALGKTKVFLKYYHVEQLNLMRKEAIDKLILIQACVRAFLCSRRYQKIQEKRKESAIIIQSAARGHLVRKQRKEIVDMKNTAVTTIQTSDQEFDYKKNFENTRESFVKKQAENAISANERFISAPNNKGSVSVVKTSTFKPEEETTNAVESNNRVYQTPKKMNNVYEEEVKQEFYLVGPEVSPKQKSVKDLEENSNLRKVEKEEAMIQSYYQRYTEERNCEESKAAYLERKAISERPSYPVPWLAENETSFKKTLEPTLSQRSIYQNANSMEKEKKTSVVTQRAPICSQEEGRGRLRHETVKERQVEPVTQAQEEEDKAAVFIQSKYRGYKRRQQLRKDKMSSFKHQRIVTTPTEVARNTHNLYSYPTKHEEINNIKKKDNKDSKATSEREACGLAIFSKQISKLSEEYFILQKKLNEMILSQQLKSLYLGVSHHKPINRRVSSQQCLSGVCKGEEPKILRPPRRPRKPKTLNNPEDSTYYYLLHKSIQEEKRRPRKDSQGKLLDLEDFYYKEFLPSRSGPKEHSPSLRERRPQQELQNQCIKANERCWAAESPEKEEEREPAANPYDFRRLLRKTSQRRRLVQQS

[14] = biological target: Ephrin type-A receptor 5 (Homo sapiens) (UniProt P54756); assay: Binding affinity to wild-type human partial length EPHA5 (T627 to V930 residues) expressed in bacterial expression system assessed as residual binding level at 1 uM by Kinomescan method relative to control
[15] = biological target: Leukocyte tyrosine kinase receptor (Homo sapiens) (UniProt P29376); assay: Binding affinity to wild-type human partial length LTK (P422 to S744 residues) expressed in bacterial expression system assessed as residual binding level at 1 uM by Kinomescan method relative to control
[16] = biological target: cGMP-dependent protein kinase 2 (Homo sapiens) (UniProt Q13237); assay: Binding affinity to wild-type human partial length PRKG2 (S422 to F762 residues) expressed in mammalian expression system assessed as residual binding level at 1 uM by Kinomescan method relative to control
[17] = biological target: Mitogen-activated protein kinase 1 (Homo sapiens) (UniProt P28482); assay: Binding affinity to wild-type human full length ERK2 (M1 to S360 residues) expressed in bacterial expression system assessed as residual binding level at 1 uM by Kinomescan method relative to control
Mitogen-activated protein kinase 1 (Homo sapiens), sequence (P28482 whole entry, the tested form may be a part): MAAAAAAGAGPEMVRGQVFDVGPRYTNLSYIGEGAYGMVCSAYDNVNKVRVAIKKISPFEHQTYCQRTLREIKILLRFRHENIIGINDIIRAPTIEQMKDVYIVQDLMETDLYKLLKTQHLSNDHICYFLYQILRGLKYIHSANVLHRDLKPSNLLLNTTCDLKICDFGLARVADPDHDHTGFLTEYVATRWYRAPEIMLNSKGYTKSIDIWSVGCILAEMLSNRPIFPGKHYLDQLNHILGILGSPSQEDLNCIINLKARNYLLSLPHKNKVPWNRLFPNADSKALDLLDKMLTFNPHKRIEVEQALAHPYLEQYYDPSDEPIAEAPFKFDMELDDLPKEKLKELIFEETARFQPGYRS

[18] = biological target: T1, Maternal embryonic leucine zipper kinase (Homo sapiens, UniProt Q14680); assay: Inhibition of recombinant human MELK expressed in Escherichia coli using ZIPtide as substrate measured after 0.5 hrs by ADP-Glo assay
[19] = system: Phosphatidylinositol 4,5-bisphosphate 3-kinase catalytic subunit alpha isoform (Homo sapiens), P42336 [H1047Y]; assay: Binding affinity to human partial length PIK3CA H1047Y mutant (R108 to N1068 residues) expressed in mammalian expression system assessed as residual binding level at 1 uM by Kinomescan method relative to control
[20] = biological target: T1, Maternal embryonic leucine zipper kinase; assay: Binding affinity to wild-type human full length MELK (M1 to V651 residues) expressed in bacterial expression system assessed as residual binding level at 1 uM by Kinomescan method relative to control
[21] = biological target: Inhibitor of nuclear factor kappa-B kinase subunit alpha (Homo sapiens) (UniProt O15111); assay: Binding affinity to wild-type human full length IKK-alpha (M1 to E745 residues) expressed in mammalian expression system assessed as residual binding level at 1 uM by Kinomescan method relative to control
[22] = biological target: Inhibitor of nuclear factor kappa-B kinase subunit epsilon (Homo sapiens) (UniProt Q14164); assay: Binding affinity to wild-type human full length IKK-epsilon (M1 to V716 residues) expressed in mammalian expression system assessed as residual binding level at 1 uM by Kinomescan method relative to control
[23] = biological target: Phosphatidylinositol 5-phosphate 4-kinase type-2 beta (Homo sapiens) (UniProt P78356); assay: Binding affinity to wild-type human full length PIP5K2B (M1 to T416 residues) expressed in bacterial expression system assessed as residual binding level at 1 uM by Kinomescan method relative to control
[24] = biological target: Tyrosine-protein kinase JAK1 (Homo sapiens) (UniProt P23458); assay: Binding affinity to wild-type human partial length JAK1 JH2 pseudokinase domain (R537 to D855 residues) expressed in mammalian expression system assessed as residual binding level at 1 uM by Kinomescan method relative to control
[25] = biological target: RAC-gamma serine/threonine-protein kinase (Homo sapiens) (UniProt Q9Y243); assay: Binding affinity to wild-type human partial length AKT3 expressed in bacterial expression system assessed as residual binding level at 1 uM by Kinomescan method relative to control
RAC-gamma serine/threonine-protein kinase (Homo sapiens), sequence (Q9Y243 whole entry): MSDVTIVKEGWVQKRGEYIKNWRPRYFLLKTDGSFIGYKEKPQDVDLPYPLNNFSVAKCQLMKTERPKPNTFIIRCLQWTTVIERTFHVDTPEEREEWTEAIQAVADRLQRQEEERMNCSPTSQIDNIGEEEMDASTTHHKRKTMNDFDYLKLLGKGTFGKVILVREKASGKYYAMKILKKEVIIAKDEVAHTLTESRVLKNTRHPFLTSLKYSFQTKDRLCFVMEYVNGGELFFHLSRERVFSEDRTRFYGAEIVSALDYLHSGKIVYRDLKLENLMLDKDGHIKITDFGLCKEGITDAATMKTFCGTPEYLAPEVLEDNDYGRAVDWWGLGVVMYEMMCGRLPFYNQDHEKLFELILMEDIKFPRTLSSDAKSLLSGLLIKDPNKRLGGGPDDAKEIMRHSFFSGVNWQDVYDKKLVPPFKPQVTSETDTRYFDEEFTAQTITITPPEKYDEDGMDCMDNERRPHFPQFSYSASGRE

SMILES: CC(C)Nc1sc(C(=O)c2ccc(Cl)s2)c(N)c1C#N
- Activity [1]: 100%
- Activity [2]: 74%
- Activity [3]: 88%
- Activity [4]: 100%
- Activity [5]: 100%
- Activity [6]: 95%
- Activity [7]: 100%
- Activity [8]: 100%
- Activity [9]: 61%
- Activity [10]: 95%
- Activity [11]: 100%
- Activity [12]: 80%
- Activity [13]: 75%
- Activity [14]: 100%
- Activity [15]: 100%
- Activity [16]: 100%
- Activity [17]: 100%
- IC50 [18]: 192 nM
- Activity [19]: 100%
- Activity [20]: 14%
- Activity [21]: 100%
- Activity [22]: 100%
- Activity [23]: 100%
- Activity [24]: 89%
- Activity [25]: 100%
